{"source": "paper PMC12597529", "about": "“Interaction between W41 of the hepatitis B virus preS1 surface peptide and Y146/F274 of the cellular receptor molecule Na^+/taurocholate co-transporting polypeptide is essential for virus entry” (Molecular Pharmacology, 2025)", "key": {"[1]": {"test_system": "NTCP", "conditions": "most of these compounds, cited from earlier work", "from_the_text": "The hepatitis B virus (HBV) belongs to the family of Hepadnaviridae. Its DNA genome encodes 3 surface proteins (HBs), namely small HBs, middle HBs, and large HBs.[1] The hepatitis D virus (HDV) is a small negative-sense RNA satellite virus and depends on the HBV envelope for entry into hepatocytes, assembly, and secretion of newly formed virions.[2] […] HBV/HDV attachment to NTCP occurs via the myristoylated preS1 domain (myr-pre ..."}, "[2]": {"test_system": "NTCP variants", "conditions": "cited from earlier work", "from_the_text": "This is exemplified by the genetic c.800G>A variant (rs2296651) that is frequent in East Asian populations and that leads to S267F mutation of NTCP inside the tunnel structure. […] More detailed analysis ... || Interaction site A is formed between F13 and F14 of myr-preS1 and the amino acids Q264, F283, F284, and L287 (TM8b, EL4, and TM9) as well as F18 (TM1) of NTCP; interaction sites B between F23 of myr-preS1 and V29 and V32 of NTCP; and interaction site C between K38, D39, H40, and W41 of myr-preS1 and A273, F274, and P275 (TM8b, EL4, and TM9) as well as Y146 (of EL2) of NTCP. For some of these amino acids, mutation studies confirmed their role for the myr-preS1 interaction. […] However, this domain also covers the surface of NTCP and not the tunnel structure. Within the published structures N87 forms hydrogen binds with E43 and K46 of the myr-preS1 string structure, while for the NTCP amino acid residues 84 to 86 no interactions with the myr-preS1 peptide could be detected. As mouse Ntcp with the corresponding residues 84HLTS87 has S ..."}, "[3]": {"test_system": "NTCPwt and NTCP-Y146A/F274A", "assay": "myr-preS1-AX568 peptide binding assay, NTCPwt-HEK293 vs NTCP-Y146A/F274A-HEK293 cells", "design": "species or system human", "conditions": "5 to 160 nM, 37 °C, fluorescence, quadruplicate determinations, two-way ANOVA P < .01", "procedure": "T-Rex Flp-In human embryonic kidney (HEK293) cells (Thermo Fisher Scientific; RRID CVCL_0045) were grown in 1:1 Dulbecco’s modified Eagle medium (DMEM)/Ham’s F12 (Gibco). Both media were supplemented with 10% fetal calf serum (Gibco), L-glutamine 4 mM (Gibco), penicillin 100 U/mL (Carl Roth), and streptomycin 100 μg/mL (Carl Roth). Stably transfected T-Rex Flp-In HEK293 cells were selected with 100 μg/mL hygromycin (Carl Roth). Expression of the recombinant NTCP proteins was induced with 5 μg/mL tetracycline treatment for 72 hours. All cell lines were cultivated in 5% CO2 atmosphere at 37 °C. Cell lines were routinely checked for possible mycoplasma contamination. […]\nTo study the HBV receptor function of NTCP, NTCPwt-HEK293 and NTCP-Y146A/F274A-HEK293 cells were incubated with the C-terminally Alexa 568 fluorophore-coupled myr-preS1 peptide (further referred to as myr-preS1-AX568), which consists of amino acids 2 to 48 of the large HBV genotype D3 surface protein (Biosynthesis). […] Myr-preS1-AX568 peptide binding was analyzed using Leica DMI6000 B inverted fluorescent microscope and LAS X software, or fluorescence was quantified with Spark multimode microplate reader (Spark Multimode Microplate, Tecan) (excitation: 570 nm, emission: 615 nm). […] Cell-associated radioactivity was quantified by liquid scintillation counting in a Packard Microplate Scintillation Counter TopCount NXT."}, "[4]": {"molecular_target": "T1, human Na+/taurocholate co-transporting polypeptide, wild type, FLAG-tagged, on NTCPwt-HEK293 cells (human, UniProt Q14973 1-349)", "T1 sequence (looked up)": "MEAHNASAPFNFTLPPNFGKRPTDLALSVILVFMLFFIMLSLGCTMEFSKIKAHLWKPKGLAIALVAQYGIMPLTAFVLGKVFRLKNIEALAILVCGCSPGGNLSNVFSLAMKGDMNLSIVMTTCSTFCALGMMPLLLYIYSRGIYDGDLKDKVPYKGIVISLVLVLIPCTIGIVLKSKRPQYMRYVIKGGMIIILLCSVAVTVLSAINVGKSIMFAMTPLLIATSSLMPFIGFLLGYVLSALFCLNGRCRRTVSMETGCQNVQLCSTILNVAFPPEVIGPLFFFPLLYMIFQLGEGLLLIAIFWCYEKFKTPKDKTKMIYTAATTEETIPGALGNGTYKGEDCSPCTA", "assay": "cell-based or functional assay"}, "[5]": {"molecular_target": "T1, human Na+/taurocholate co-transporting …", "assay": "radioligand binding; competition: 5 nM [3H]preS1 on tetracycline-induced NTCP-HEK293 cells in 96-well plates, 10 minutes at 37 °C in DMEM, after preincubation with increasing concentrations of unlabelled peptide; cells without tetracycline as 0% control; liquid scintillation counting; 2 independent experiments", "conditions": "one partner purified"}}, "note": "Where “and” joins values, the source holds several entries; their conditions need not be identical. Equal entries are not always repeated. Where two headings read alike, the source gives them in different places. Ends that are not written are not given here. * marks the point of attachment. Myristoyl = CCCCCCCCCCCCCC(=O)*", "data": [{"molecule": "CCC(C)CC(C)C(=O)OC1(C)C(=O)c2c(cc(O)c3c2CC(O)CC3C)C(C)(O)C1=O", "note": "(stereo not drawn) [vanitaracin A]", "values": [{"measurement": "NTCP inhibition, selectivity virus binding vs bile acid transport", "setting": "[1]; plant-derived compounds", "value": "block NTCP in a nonselective manner"}]}, {"molecule": "myr-preS1: myristoylated preS1 domain of the HBV large surface protein (Myristoyl-GQNLSTSNPLGFFPDHQLDPAFRANTANPDWDFNPNKDTWPDANKVG)", "values": [{"measurement": "myr-preS1 binding", "setting": "[2]; 84 to 87 humanized construct of mouse Ntcp", "value": "did not only bind myr-preS1 but also supported infection"}, {"measurement": "myr-preS1 binding", "setting": "[2]; 158R NTCP variant found in OWM", "value": "resistant to myr-preS1 binding"}, {"measurement": "myr-preS1 binding", "setting": "[2]; NTCP Q264A mutant, bile acid transport retained", "value": "significantly reduced myr-preS1 binding"}, {"measurement": "myr-preS1 binding", "setting": "[2]; NTCP V272W mutant, intact bile acids transport", "value": "significantly reduced myr-preS1 binding"}, {"measurement": "myr-preS1 binding", "setting": "[2]; R158G mutation of OWM Ntcp", "value": "sufficient to support myr-preS1 binding"}]}, {"molecule": "CC[C@H]1[C@@H](O)[C@@H]2[C@H](CC[C@]3(C)[C@@H]([C@H](C)CCC(=O)O)CC[C@@H]23)[C@@]2(C)CC[C@@H](O)C[C@@H]12", "note": "[obeticholic acid]", "values": [{"measurement": "NTCP inhibition, selectivity virus binding vs bile acid transport", "setting": "[1]; bile acid derivatives", "value": "block NTCP in a nonselective manner"}]}, {"molecule": "C=C(C)[C@@H]1CC[C@]2(C(=O)O)CC[C@]3(C)[C@H](CC[C@@H]4[C@@]5(C)CC[C@H](O)C(C)(C)[C@@H]5CC[C@]43C)[C@@H]12", "note": "[betulinic acid]", "values": [{"measurement": "NTCP inhibition, selectivity virus binding vs bile acid transport", "setting": "[1]; plant-derived compounds", "value": "block NTCP in a nonselective manner"}]}, {"molecule": "CCCCCCCCCc1cc(OC(=O)c2c(CCCCCCCCC)cc(O)cc2OC2OC(CO)C(O)C(O)C2O)cc(O)c1C(=O)O", "note": "(stereo not drawn) [exophillic acid]", "values": [{"measurement": "NTCP inhibition, selectivity virus binding vs bile acid transport", "setting": "[1]; plant-derived compounds", "value": "block NTCP in a nonselective manner"}]}, {"molecule": "myr-preS1-AX568: C-terminally Alexa 568 fluorophore-coupled myr-preS1 peptide, amino acids 2 to 48 of the large HBV genotype D3 surface protein (Myristoyl-GQNLSTSNPLGFFPDHQLDPAFRANTANPDWDFNPNKDTWPDANKVG-{Alexa 568}; also: myristoylated (myr-preS1))", "values": [{"measurement": "binding to the Y146A/F274A NTCP mutant compared with NTCPwt", "setting": "[3]", "value": "much lower binding to the NTCP-Y146A/F274A mutant compared with NTCPwt"}]}, {"molecule": "O=C1[C@H](CC[C@H](O)c2ccc(F)cc2)[C@@H](c2ccc(O)cc2)N1c1ccc(F)cc1", "note": "[ezetimibe]", "values": [{"measurement": "NTCP inhibition, selectivity virus binding vs bile acid transport", "setting": "[1]; approved drugs", "value": "block NTCP in a nonselective manner"}]}, {"molecule": "CCCCC1=NC2(CCCC2)C(=O)N1Cc1ccc(-c2ccccc2-c2nnn[nH]2)cc1", "note": "[irbesartan]", "values": [{"measurement": "NTCP inhibition, selectivity virus binding vs bile acid transport", "setting": "[1]; approved drugs", "value": "block NTCP in a nonselective manner"}]}, {"molecule": "CN(CCOc1ccc(CC2SC(=O)NC2=O)cc1)c1ccccn1", "note": "(stereo not drawn) [rosiglitazone]", "values": [{"measurement": "NTCP inhibition, selectivity virus binding vs bile acid transport", "setting": "[1]; approved drugs", "value": "block NTCP in a nonselective manner"}]}, {"molecule": "CC(C)c1nc(CN(C)C(=O)N[C@H](C(=O)N[C@@H](Cc2ccccc2)C[C@H](O)[C@H](Cc2ccccc2)NC(=O)OCc2cncs2)C(C)C)cs1", "note": "[ritonavir]", "values": [{"measurement": "NTCP inhibition, selectivity virus binding vs bile acid transport", "setting": "[1]; approved drugs", "value": "block NTCP in a nonselective manner"}]}, {"molecule": "GQNLSTSNPLGFFPDHQLDPAFRANTANPDWDFNPNKDTWPDANKVG (not fully specified (N-terminus); also: myristoylated (myr-preS1), also called myr-preS1 WT; wild-type myr-preS1 peptide (genotype D))", "note": "[wild-type myr-preS1 peptide of HBV genotype D (unlabelled)]", "values": [{"measurement": "inhibition of [3H]TCA (1 μM) transport via NTCP in NTCP-HEK293 cells, 10 minutes at 37 °C, IC50", "setting": "[4]", "value": "111 nM and 221 nM"}, {"measurement": "IC50", "setting": "[5]", "value": "99 nM and 168 nM"}]}, {"molecule": "GQNLSTSNPLGFFPDHQLDPAFRANTANPDWDFNPNKDTGPDANKVG (not fully specified (N-terminus); also: myristoylated (myr-preS1), also called myr-preS1-W41G; myr-preS1 W41G peptide; source: bought: ProteoGenix S.A.S)", "note": "[W41G mutant myr-preS1 peptide of HBV genotype D]", "values": [{"measurement": "inhibition of [3H]TCA (1 μM) transport via NTCP in NTCP-HEK293 cells, 10 minutes at 37 °C, IC50", "setting": "[4]", "value": "386 nM and 397 nM"}, {"measurement": "IC50", "setting": "[5]", "value": "422 nM and 298 nM"}]}]}
